Experimental data as given in patent publication US12617757B2, “Compounds and modules for inhibition of pre-miR-21 and their use in treatment of certain cancers” (University of Florida Research Foundation, Incorporated, priority 2019, dated 2026).
Entries after “also recorded” stand apart in the source; their conditions may differ. Where two headings read alike, the source gives them in different places.

How the values were obtained:
[1] = tested on: A549 cells; test: Boyden chamber invasion assay, A549; format: cell-based; details: LNA-21 100 nM, 2 1000 nM
Procedure: (§1) Boyden Chamber Invasion Assay. The MDA-MB-231, MDA-LM2, A375, A549, or MCF-10a cells (5×10^4) were seeded into Hanging Cell Culture Inserts for 24 well plates with uncoated membranes with 8.0 μm pores (Millicell) in serum free growth media. A 3 mg/mL layer (100 μL) of Matrigel (Fisher Scientific: CB40234) diluted with serum free growth media was prepared inside of each membrane. Cells were cultured as described above, with or without compound treatment, and allowed to invade towards complete growth media in the bottom well for 16-24 h before ending the experiment by removing the media in the bottom wells and inserts. The hanging cell culture inserts and bottom wells were washed twice with 1×PBS, gently shaking to mix. Excess liquid and cells inside the insert were removed with cotton swabs, after which 400 μL of 4% paraformaldehyde was placed into the bottom well and incubated for 20 min at room temperature to fix the cells. […] Four different fields of view from each captured image were counted for crystal violet stained or unstained cells. Normalized cells invaded was calculated with equation 5 (Eq 5): […]
(§2) where stained cells represent cells counted with crystal violet stain observed in the compound treated or vehicle treated samples, respectively.

[2] = tested on: PDCD4; test: PDCD4 Western blot in MDA-MB-231 cells; format: cell-based, human; details: for effect on PDCD4 protein levels: Western blotting relative to β-actin
Procedure: PDCD4 Western blot: The MDA-MB-231 cells were grown to ˜60% confluency in 6-well plates. Cells were incubated with compounds diluted in growth media for 48 h. Total protein was extracted using M-PER Mammalian Protein Extraction Reagent (Pierce Biotechnology) supplemented with 1×Protease Inhibitor Cocktail III for Mammalian Cells (Research Products International Corp.) per the manufacturer's protocol. Total protein lysate was quantified using a Micro BCA Protein Assay Kit (Pierce Biotechnology). A 30 μg aliquot of total protein was resolved on a 10% Bis-Tris SDS-polyacrylamide gel, with a 5% stacking layer, and then transferred to a PVDF membrane. The membrane was then blocked in 5% (w/v) nonfat dry milk in 1×TBST for 1 h at room temperature. The membrane was then incubated with 1:2000 rabbit mAb PDCD4 primary antibody (Cell Signaling Technology: D29C6) in 1×TBST containing 5% nonfat dry milk overnight at 4° C. The membrane was washed five times for 5 min each with 1×TBST and then incubated with 1:5000 anti-rabbit IgG horseradish peroxidase secondary antibody conjugate (Cell Signaling Technology: 7074S) in 1×TBST containing 5% nonfat dry milk for 1 h at room temperature. After washing seven times for 5 min each with 1×TBST, protein levels were quantified by chemiluminescence using a SuperSignal West Pico Chemiluminescent Substrate (Pierce Biotechnology) per the manufacturer's recommendations. The membrane was stripped with 1×Stripping Buffer (200 mM glycine, pH 2.2, 1% Tween-20 and 0.1% SDS) two times for 5 min each, followed by washing 3 times in 1×TBST. Then, the membrane was blocked and probed for β-actin following the same procedure described above using 1:5000 mouse β-actin primary antibody (Cell Signaling Technology: 8H10D10). The membrane was washed five times with 1×TBST and incubated with 1:10000 anti-mouse IgG horseradish-peroxidase secondary antibody conjugate (Cell Signaling Technology: 7076S). After washing seven times with 1×TBST for 5 min each, protein levels were quantified as described above. ImageJ software was used to quantify band intensities.

[3] = tested on: MDA-MB-231 cells; test: Boyden chamber invasion assay, MDA-MB-231; format: cell-based, human; details: for effect on invasion: MDA-MB-231, LNA-21 100 nM, 2 1000 nM; for effect on invasion upon transient expression of pre-miR-21: MDA-MB-231 + pre-miR-21
Procedure: Boyden Chamber Invasion Assay. The MDA-MB-231, MDA-LM2, A375, A549, or MCF-10a cells (5×10^4) were seeded into Hanging Cell Culture Inserts for 24 well plates with uncoated membranes with 8.0 μm pores (Millicell) in serum free growth media. A 3 mg/mL layer (100 μL) of Matrigel (Fisher Scientific: CB40234) diluted with serum free growth media was prepared inside of each membrane. Cells were cultured as described above, with or without compound treatment, and allowed to invade towards complete growth media in the bottom well for 16-24 h before ending the experiment by removing the media in the bottom wells and inserts. The hanging cell culture inserts and bottom wells were washed twice with 1×PBS, gently shaking to mix. Excess liquid and cells inside the insert were removed with cotton swabs, after which 400 μL of 4% paraformaldehyde was placed into the bottom well and incubated for 20 min at room temperature to fix the cells. The wells and inserts were washed twice with 1×PBS and then treated with 400 μL of 0.1% crystal violet solution for 20 min at room temperature to stain the cells. The wells and inserts were washed twice with water, followed by one wash with 1×PBS. Inserts were dried with cotton swabs to remove extra stain and cells inside the insert, then were air-dried, followed by Brightfield microscopic analysis using a Leica DMI3000 B […] fluorescent microscope. Four different fields of view from each captured image were counted for crystal violet stained or unstained cells. Normalized cells invaded was calculated with equation 5 (Eq 5): […]
as §2

[4] = tested on: miR-21 in various cancer cell lines; test: RT-qPCR of mature miR-21 in various cancer cell lines; format: cell-based
[5] = tested on: A375 cells; test: Boyden chamber invasion assay, A375; format: cell-based; details: LNA-21 100 nM, 2 1000 nM
Procedure: as §1, §2

[6] = tested on: pre-miR-21; test: RT-qPCR of mature miR-21 and pre-miR-21 levels in MDA-MB-231 cells; format: cell-based, human; details: for period over which significantly decreased miR-21 levels were observed after a single dose: Formula 2 1000 nM, Formula 5 50 nM; for effect on mature miR-21 levels / effect on pre-miR-21 levels: MDA-MB-231, RT-qPCR; for effect on pre-miR-21 upon siRNA ablation of RNase L: 5 at 50 nM
Procedure: Cell culture compound treatment and transfection. For treatment with compounds, stocks in DMSO or water were diluted in growth media and added to cells for 24-72 h. For transfection of plasmid DNA to overexpress the miR-21 hairpin precursor in pcDNA3.1 (Addgene 21114) or pcDNA3-RNaseL (R. H. Silverman, Cleveland Clinic^24) in 24-well plates, Lipofectamine 2000 was used according to the manufacturer's protocol. After transfection, the medium was removed and replaced with growth medium containing compound prepared as described above. For transfection of a control (Santa Cruz Biotechnology: sc-37007) or RNase L targeting siRNA (Santa Cruz Biotechnology: sc-45965), Lipofectamine RNAiMAX Reagent was used for transfection of oligonucleotides, including 2′-5′ A4, according to the manufacturer's protocol.

SMILES: CCCN(CC(=O)N(CCC)CC(=O)N(CCC)CC(=O)N(CC(N)=O)Cc1cn(CCCNC(=O)CCCOc2ccc(-c3nc4cc(-c5ccc(N6CCN(C)CC6)cc5)ccc4[nH]3)cc2)nn1)C(=O)CNCc1cn(CCCNC(=O)CCCOc2ccc(-c3nc4cc(-c5ccc(N6CCN(C)CC6)cc5)ccc4[nH]3)cc2)nn1 [Compound 2]
- effect on invasion [1]: decreased the invasive phenotype
- increase of PDCD4 levels ([2]; 1 μM, MDA-MB-231): ~50%
- effect on PDCD4 protein levels [2]: de-repress levels of PDCD4 protein
- effect on invasion [3]: decreased the invasive phenotype
- effect on invasion ([3]; listed as Formula 2): inhibited the invasive properties of MDA-MB-231
- effect on mature miR-21 levels [4]: silenced miR-21
- effect on invasion [5]: decreased the invasive phenotype
- period over which significantly decreased miR-21 levels were observed after a single dose ([6]; MDA-MB-231): 48 h
- effect on mature miR-21 levels [6]: decreased miR-21 levels; also recorded: decreases mature miR-21 levels
- effect on pre-miR-21 levels [6]: increased pre-miR-21 levels; also recorded: boosted levels of pre-miR 21
- IC50 ([6]; MDA-MB-231, read-out: IC50, affecting pre-miR-21 in cells): 1000 nM

SMILES: CCCN(CC(=O)N(CCC)CC(=O)N(CCC)CC(=O)N(CC(=O)NCCOCCOCCOCCOc1ccc(C=C2SC(Nc3ccccc3)=C(C(=O)OCC)C2=O)cc1O)Cc1cn(CCCNC(=O)CCCOc2ccc(-c3nc4cc(-c5ccc(N6CCN(C)CC6)cc5)ccc4[nH]3)cc2)nn1)C(=O)CN(Cc1cn(CCCNC(=O)CCCOc2ccc(-c3nc4cc(-c5ccc(N6CCN(C)CC6)cc5)ccc4[nH]3)cc2)nn1)C(C)=O [Compound 5]
- effect on invasion ([1]; listed as Formula 5): decreased invasiveness
- effect on PDCD4 protein levels [2]: de-repress levels of PDCD4 protein
- effect on invasion upon transient expression of pre-miR-21 [3]: ablated
- effect on invasion upon transient expression of pre-miR-21 ([3]; listed as Formula 5): ablated the inhibitory effect
- effect on invasion [3]: significant decrease of invasion
- effect on invasion ([3]; listed as Formula 5): effectively inhibited invasion
- effect on mature miR-21 levels [4]: decreased mature miR-21 levels
- effect on mature miR-21 levels ([4]; listed as Formula 5): significantly inhibited miR-21 levels
- effect on invasion ([5]; listed as Formula 5): decreased invasiveness
- effect on pre-miR-21 upon siRNA ablation of RNase L ([6]; MDA-MB-231): diminished effects
- effect on pre-miR-21 upon siRNA ablation of RNase L ([6]; MDA-MB-231, listed as Formula 5): decreased the ability of Formula 5 to cleave pre-miR-21
- period over which significantly decreased miR-21 levels were observed after a single dose ([6]; MDA-MB-231): 96 h
- enhanced activity for affecting miR-21 levels over parent 2 ([6]; MDA-MB-231): 20 fold
- potency of enzymatic cleavage versus bleomycin conjugate of 2 ([6]; MDA-MB-231): 10 fold
- effect on mature miR-21 levels [6]: decreased miR-21 levels
- effect on pre-miR-21 levels [6]: decreased pre-miR-21
- effect on pre-miR-21 levels ([6]; listed as Formula 5): diminished
- IC50 ([6]; MDA-MB-231, read-out: IC50, affecting miR-21 levels): ~50 nM
